Experimental data taken from patent publication US7772180B2, “Hepatitis C virus inhibitors” (Bristol-Myers Squibb Company, priority 2006, dated 2010).
Like-named read-outs stand apart in the source and are kept apart here.

Assays:
[1] = tested on: HCV replicon (strain 1b) in HUH-7 cells; assay: HCV replicon FRET assay; type: cell-based, Hepatitis C virus; conditions: Hepatitis C virus, Huh-7, read-out: HCV Pro Replicon (EC50), HCV replicon cell assay
[2] = target: T1, HCV NS3/4A protease complex, BMS strain (UniProt P27958, species not given/STRAIN_BMS); assay: FRET peptide assay to monitor HCV NS3/4A proteolytic activity (BMS strain); type: biochemical, Hepatitis C virus (genotype 1a); conditions: read-out: HCV Protease (IC50), NS3/4A BMS strain
T1 construct: other: NS3/4A BMS strain; activity range class; numeric values, unit not given; said of H77 and J4L6S; fused on or other part: A three-lysine solubilising tail at the C-terminus of NS4A; A His tag is implied by the pET21b vector and Ni-NTA purification; Both are printed for the H77 and J4L6S constructs and apply to BMS by inference
Procedure, shortened: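 Purified recombinant NS3/4A complex from genotype 1a BMS strain, 2-3 nM final, with RET S1 EDANS/DABCYL depsipeptide substrate at 2 μM final in HEPES pH 7.5, NaCl, Triton, glycerol, βME. Cleavage followed in real time by fluorescence. For high-potency compounds: 50 μg/ml BSA added, protease lowered to 300 pM.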

T1 sequence (P27958 1027-1657, change not shown, one chain of several): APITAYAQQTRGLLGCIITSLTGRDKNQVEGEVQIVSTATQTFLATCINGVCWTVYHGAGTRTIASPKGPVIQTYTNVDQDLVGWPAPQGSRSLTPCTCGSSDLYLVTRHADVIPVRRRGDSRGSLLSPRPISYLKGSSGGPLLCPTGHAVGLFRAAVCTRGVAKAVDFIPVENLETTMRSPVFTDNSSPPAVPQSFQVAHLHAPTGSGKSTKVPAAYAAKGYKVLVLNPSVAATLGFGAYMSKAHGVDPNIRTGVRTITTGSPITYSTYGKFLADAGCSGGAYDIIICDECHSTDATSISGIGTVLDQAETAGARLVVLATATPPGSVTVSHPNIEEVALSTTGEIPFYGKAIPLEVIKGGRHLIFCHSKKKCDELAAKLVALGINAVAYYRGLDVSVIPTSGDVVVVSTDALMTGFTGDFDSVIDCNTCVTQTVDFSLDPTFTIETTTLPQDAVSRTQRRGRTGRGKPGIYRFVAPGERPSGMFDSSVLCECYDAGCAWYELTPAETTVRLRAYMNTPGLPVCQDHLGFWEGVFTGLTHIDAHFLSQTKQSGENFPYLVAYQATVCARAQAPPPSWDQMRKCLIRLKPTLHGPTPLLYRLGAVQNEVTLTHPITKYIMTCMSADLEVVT

Row | Compound | EC50 ([1]; activity range class) | IC50 ([2]; activity range class) | EC50 ([1]; numeric values, unit inferred) | IC50 ([2]; numeric values, unit inferred)
1 | C=C[C@@H]1C[C@]1(NC(=O)[C@@H]1C[C@@H](Oc2ncc(OC)c3ccc(Cl)cc23)CN1C(=O)C(Nc1cncc(C)c1)C(C)(C)C)C(=O)NS(=O)(=O)C1CC1 (stereo partly drawn) [Compound 25, 3-methyl-N-(5-methyl-3-pyridinyl)valyl-(4R)-4-((7-chloro-4-methoxy-1-isoquinolinyl)oxy)-N-((1R,2S)-1-((cyclopropylsulfonyl)carbamoyl)-2-vinylcyclopropyl)-L-prolinamide] | 3 to 100 nM | 0.6 to 20 nM | – | –
2 | C=C[C@@H]1C[C@]1(NC(=O)[C@@H]1C[C@@H](Oc2ncc(OC)c3ccc(Cl)cc23)CN1C(=O)[C@H](Nc1ccc(F)c(F)c1)C(C)(C)C)C(=O)NS(=O)(=O)C1CC1 [220 second isomer, N-(3,4-difluorophenyl)-3-methyl-D-valyl-(4R)-4-((7-chloro-4-methoxy-1-isoquinolinyl)oxy)-N-((1R,2S)-1-((cyclopropylsulfonyl)carbamoyl)-2-vinylcyclopropyl)-L-prolinamide] | 100 to 1000 nM | > 200 nM | – | –
3 | C=C[C@@H]1C[C@]1(NC(=O)[C@@H]1C[C@@H](Oc2ncc(OC)c3ccc(Cl)cc23)CN1C(=O)[C@@H](Nc1ccc(C(=O)N(C)C)cc1)C(C)(C)C)C(=O)NS(=O)(=O)C1CC1 [221 first isomer, N-(4-(dimethylcarbamoyl)phenyl)-3-methyl-L-valyl-(4R)-4-((7-chloro-4-methoxy-1-isoquinolinyl)oxy)-N-((1R,2S)-1-((cyclopropylsulfonyl)carbamoyl)-2-vinylcyclopropyl)-L-prolinamide] | 100 to 1000 nM | 0.6 to 20 nM | – | –
4 | C=C[C@@H]1C[C@]1(NC(=O)[C@@H]1C[C@@H](Oc2nccc3cc(OC)ccc23)CN1C(=O)[C@H](Nc1ccccc1)C(C)(C)C)C(=O)NS(=O)(=O)C1CC1 [Compound 15B, 3-methyl-N-phenyl-D-valyl-(4R)—N-((1R,2S)-1-((cyclopropylsulfonyl)carbamoyl)-2-vinylcyclopropyl)-4-((6-methoxy-1-isoquinolinyl)oxy)-L-prolinamide] | – | – | 3380 nM | 1900 nM
5 | C=C[C@@H]1C[C@]1(NC(=O)[C@@H]1C[C@@H](Oc2ncc(OC)c3ccc(Cl)cc23)CN1C(=O)C(Nc1nsnc1OC)C(C)C)C(=O)NS(=O)(=O)C1CC1 (stereo partly shown) [Compound 242] | 3 to 100 nM | 0.6 to 20 nM | – | –
6 | C=C[C@@H]1C[C@]1(NC(=O)[C@@H]1C[C@@H](Oc2ncc(OC)c3ccc(Cl)cc23)CN1C(=O)[C@@H](Nc1cncc(Cl)c1)C(C)(C)C)C(=O)NS(=O)(=O)C1CC1 [Compound 33, N-(5-chloro-3-pyridinyl)-3-methylvalyl-(4R)-4-((7-chloro-4-methoxy-1-isoquinolinyl)oxy)-N-((1R,2S)-1-((cyclopropylsulfonyl)carbamoyl)-2-vinylcyclopropyl)-L-prolinamide] | – | – | 8.19 nM | 2 nM
7 | C=C[C@@H]1C[C@]1(NC(=O)[C@@H]1C[C@@H](Oc2nccc3cc(OC)ccc23)CN1C(=O)C(Nc1nc(OC)cc(OC)n1)C(C)C)C(=O)NS(=O)(=O)C1CC1 (mixture of isomers) [Compound 5, N-(4,6-dimethoxy-2-pyrimidinyl)valyl-(4R)—N-((1R,2S)-1-((cyclopropylsulfonyl)carbamoyl)-2-vinylcyclopropyl)-4-((6-methoxy-1-isoquinolinyl)oxy)-L-prolinamide] | 100 to 1000 nM | 20 to 200 nM | – | –
8 | C=C[C@@H]1C[C@]1(NC(=O)[C@@H]1C[C@@H](Oc2nccc3cc(OC)ccc23)CN1C(=O)C(Nc1cc(C#N)ccn1)C(C)C)C(=O)NS(=O)(=O)C1CC1 (mixture of isomers) [Compound 11, N-(4-cyano-2-pyridinyl)valyl-(4R)—N-((1R,2S)-1-((cyclopropylsulfonyl)carbamoyl)-2-vinylcyclopropyl)-4-((6-methoxy-1-isoquinolinyl)oxy)-L-prolinamide] | 3 to 100 nM | 0.6 to 20 nM | – | –
